Measured values taken from patent US20240041042A1, “1-(PYRIDYL)-5-AZINYLPYRAZOLE DERIVATIVES, AND THEIR USE FOR CONTROL OF UNDESIRED PLANT GROWTH” (Bayer Aktiengesellschaft, priority 2020, published 2024).

How the values were obtained:
Format in all cases: in vivo
[1] = system: Alopecurus myosuroides (ALOMY); test: Pre-emergence herbicidal action against ALOMY; conditions: scored visually after about 3 weeks, 100% = plants have died
How it was run: (§1)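 Application rates ran to 320 g/ha or lower, with several dosages tested on the same weeds. The compound, as wettable powder or emulsion concentrate, is sprayed pre-emergence onto soil over sown seeds; greenhouse growth follows, and effect is rated visually after roughly 3 weeks.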

[2] = system: Amaranthus retroflexus (AMARE); test: Pre-emergence herbicidal action against AMARE; conditions: visual scoring after about 3 weeks vs untreated controls
How it was run: as §1

Avena fatua (AVEFA) [3] = test: Pre-emergence herbicidal action against AVEFA; conditions: 320 g/ha, visual scoring after about 3 weeks vs untreated controls
How it was run: as §1

[4] = system: Echinochloa crus-galli (ECHCG); test: Pre-emergence herbicidal action against ECHCG
How it was run: as §1

Lolium rigidum (LOLRI) [5] = test: Pre-emergence herbicidal action against LOLRI
How it was run: as §1

[6] = system: Matricaria inodora (MATIN); test: Pre-emergence herbicidal action against MATIN
How it was run: as §1

[7] = system: Pharbitis purpurea (PHBPU); test: Pre-emergence herbicidal action against PHBPU
How it was run: as §1

[8] = system: Polygonum convolvulus (POLCO); test: Pre-emergence herbicidal action against POLCO
How it was run: as §1

Setaria viridis (SETVI) [9] = test: Pre-emergence herbicidal action against SETVI
How it was run: as §1

[10] = system: Verconica persica (VERPE); test: Pre-emergence herbicidal action against VERPE
How it was run: as §1

Viola tricolor (VIOTR) [11] = test: Pre-emergence herbicidal action against VIOTR
How it was run: as §1

[12] = system: Alopecurus myosuroides (ALOMY); test: Post-emergence herbicidal action against ALOMY; conditions: visual rating about 3 weeks after treatment vs untreated controls (100% = plants have died, 0% = like control plants)
How it was run: (§2)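 Rates were 320 g/ha or below, applied as aqueous WP/EC spray with 0.5% additive (600 l/ha) onto one-leaf-stage plants. About 3 weeks later in the greenhouse, damage was scored visually against untreated plants on a 0–100% scale, where 100% means plants died.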

[13] = system: Amaranthus retroflexus (AMARE); test: Post-emergence herbicidal action against AMARE
How it was run: as §2

Avena fatua (AVEFA) [14] = test: Post-emergence herbicidal action against AVEFA; conditions: visual rating about 3 weeks after treatment
How it was run: as §2

[15] = system: Echinochloa crus-galli (ECHCG); test: Post-emergence herbicidal action against ECHCG
How it was run: as §2

Lolium rigidum (LOLRI) [16] = test: Post-emergence herbicidal action against LOLRI
How it was run: as §2

[17] = system: Matricaria inodora (MATIN); test: Post-emergence herbicidal action against MATIN
Procedure: Seeds of monocotyledonous and dicotyledonous weeds and crop plants are placed in sandy loam in plastic or organic planting pots, covered with soil and cultivated in a greenhouse under controlled growth conditions. 2 to 3 weeks after sowing, the test plants are treated at the one-leaf stage. The compounds of the invention, formulated in the form of wettable powders (WP) or as emulsion concentrates (EC), are then sprayed onto the green parts of the plants as aqueous suspension or emulsion with addition of 0.5% additive at a water application rate of 600 l/ha (converted). After the test plants have been kept in the greenhouse under optimum growth conditions for about 3 weeks, the activity of the preparations is rated visually in comparison to untreated controls. For example, 100% activity=the plants have died, 0% activity=like control plants.
Tables B1 to B13 below show the effects of selected compounds of the general formula (I) according to Table 1 on various harmful plants and at an application rate corresponding to 320 g/ha or lower, which were obtained by the experimental procedure mentioned above. The appendices “a”, “b” and “c” give differentiation by dosage used with otherwise the same harmful plants tested.

[18] = system: Pharbitis purpurea (PHBPU); test: Post-emergence herbicidal action against PHBPU
How it was run: as §2

[19] = system: Polygonum convolvulus (POLCO); test: Post-emergence herbicidal action against POLCO
How it was run: as §2

Setaria viridis (SETVI) [20] = test: Post-emergence herbicidal action against SETVI
How it was run: as §2

[21] = system: Verconica persica (VERPE); test: Post-emergence herbicidal action against VERPE
How it was run: as §2

Viola tricolor (VIOTR) [22] = test: Post-emergence herbicidal action against VIOTR
How it was run: as §2

Oryza sativa (ORYSA) = conditions: crop plant compatibility, 80 g/ha, effect in comparison to untreated controls
How it was run: (§3)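 Percent effect on the crop was judged by eye against untreated controls, where 0% means like control and 100% means dead plants. Plants had been sprayed post-emergence at the one-leaf stage and then kept under optimum greenhouse conditions for about 3 weeks.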

Zea mays (ZEAMX) = conditions: crop plant compatibility, 80 g/ha, effect vs untreated controls
How it was run: as §3

[23] = system: Abutilon theophrasti (ABUTH); test: Post-emergence herbicidal action against ABUTH; conditions: visual rating about 3 weeks after treatment vs untreated controls (100% = plants have died, 0% = like control plants)
How it was run: as §2

[24] = 80 g/ha, visual rating about 3 weeks after treatment vs untreated controls (100% = plants have died, 0% = like control plants)
[25] = 320 g/ha, visual rating about 3 weeks after treatment

For `CCOC(=O)COc1nn(-c2ncccc2C)c(-c2ccc(F)nc2)c1Br` [Example I-321], the “Pre-emergence action against ALOMY” value ([1]; 320 g/ha) was 100%, the “Pre-emergence action against AMARE in %” value ([2]; 80 g/ha) was 100% and the “Pre-emergence action against AMARE in %” value ([2]; 320 g/ha) was 100%. The “Pre-emergence action against AVEFA in %” value (Avena fatua (AVEFA) [3]) was 90%, the “Pre-emergence action against ECHCG in %” value ([4]; dosage 80 g/ha) was 100% and the “Pre-emergence action against ECHCG in %” value ([4]; dosage 320 g/ha) was 100%. The “Pre-emergence action against LOLRI in %” value (Lolium rigidum (LOLRI) [5]; dosage 80 g/ha) was 100%, the “Pre-emergence action against LOLRI in %” value (Lolium rigidum (LOLRI) [5]; dosage 320 g/ha) was 100% and the “Pre-emergence action against MATIN in %” value ([6]; dosage 320 g/ha) was 100%. For the same compound, the “Pre-emergence action against PHBPU in %” value ([7]; dosage 80 g/ha) was 80%, the “Pre-emergence action against PHBPU in %” value ([7]; dosage 320 g/ha) was 90% and the “Pre-emergence action against POLCO in %” value ([8]; dosage 80 g/ha) was 90%. The “Pre-emergence action against POLCO in %” value ([8]; dosage 320 g/ha) was 100%, the “Pre-emergence action against SETVI in %” value (Setaria viridis (SETVI) [9]; dosage 320 g/ha) was 100% and the “Pre-emergence action against VERPE in %” value ([10]; dosage 320 g/ha) was 100%. The “Pre-emergence action against VIOTR in %” value (Viola tricolor (VIOTR) [11]; 320 g/ha, Viola tricolor) was 100%, the “Pre-emergence action against VIOTR in %” value (Viola tricolor (VIOTR) [11]; dosage 80 g/ha) was 90% and the “Post-emergence action against ALOMY in %” value ([12]; 80 g/ha) was 90%. The “Post-emergence action against ALOMY in %” value ([12]; 320 g/ha) was 100%, the “Post-emergence action against AMARE in %” value [13, 24] was 80% and the “Post-emergence action against AMARE in %” value [13, 25] was 80%. For the same compound, the “Post-emergence action against AVEFA in %” value (Avena fatua (AVEFA) [14]; 80 g/ha) was 90%, the “Post-emergence action against AVEFA in %” value (Avena fatua (AVEFA) [14]; 320 g/ha) was 90% and the “Post-emergence action against ECHCG in %” value ([15]; dosage 80 g/ha) was 90%. For the same compound, the “Post-emergence action against ECHCG in %” value ([15]; dosage 320 g/ha) was 90%, the “Post-emergence action against LOLRI in %” value (Lolium rigidum (LOLRI) [16]; dosage 80 g/ha) was 100% and the “Post-emergence action against LOLRI in %” value (Lolium rigidum (LOLRI) [16]; dosage 320 g/ha) was 100%. The “Post-emergence action against MATIN in %” value ([17]; dosage 320 g/ha) was 80%, the “Post-emergence action against PHBPU in %” value ([18]; dosage 320 g/ha) was 90% and the “Post-emergence action against POLCO in %” value ([19]; dosage 80 g/ha) was 80%. The “Post-emergence action against POLCO in %” value ([19]; dosage 320 g/ha) was 90%, the “Post-emergence action against SETVI in %” value (Setaria viridis (SETVI) [20]; dosage 80 g/ha) was 90% and the “Post-emergence action against SETVI in %” value (Setaria viridis (SETVI) [20]; dosage 320 g/ha) was 90%. For the same compound, the “Post-emergence action against VERPE in %” value ([21]; 320 g/ha, VERPE) was 90%, the “Post-emergence action against VIOTR in %” value (Viola tricolor (VIOTR) [22]; 80 g/ha) was 80% and the “Post-emergence action against VIOTR in %” value (Viola tricolor (VIOTR) [22]; 320 g/ha) was 80%. The “Post-emergence action against ORYSA in %” value (Oryza sativa (ORYSA)) was 0% and the “Post-emergence action against ZEAMX in %” value (Zea mays (ZEAMX)) was 0%.

In the case of `CCOC(=O)COc1nn(-c2ccccn2)c(-c2ccc(F)nc2)c1Cl` [Example I-85], the “Pre-emergence action against ALOMY” value ([1]; 80 g/ha) is reported as 80%, the “Pre-emergence action against ALOMY” value ([1]; 320 g/ha) is reported as 90% and the “Pre-emergence action against AMARE in %” value ([2]; 80 g/ha) is reported as 90%. For the same compound, the “Pre-emergence action against AMARE in %” value ([2]; 320 g/ha) was 100%, the “Pre-emergence action against AVEFA in %” value (Avena fatua (AVEFA) [3]) was 90% and the “Pre-emergence action against ECHCG in %” value ([4]; dosage 80 g/ha) was 100%. For the same compound, the “Pre-emergence action against ECHCG in %” value ([4]; dosage 320 g/ha) was 100%, the “Pre-emergence action against LOLRI in %” value (Lolium rigidum (LOLRI) [5]; dosage 320 g/ha) was 100% and the “Pre-emergence action against MATIN in %” value ([6]; dosage 80 g/ha) was 100%. The “Pre-emergence action against MATIN in %” value ([6]; dosage 320 g/ha) was 100%, the “Pre-emergence action against PHBPU in %” value ([7]; dosage 80 g/ha) was 90% and the “Pre-emergence action against PHBPU in %” value ([7]; dosage 320 g/ha) was 100%. For the same compound, the “Pre-emergence action against POLCO in %” value ([8]; dosage 320 g/ha) was 100%, the “Pre-emergence action against SETVI in %” value (Setaria viridis (SETVI) [9]; dosage 80 g/ha) was 100% and the “Pre-emergence action against SETVI in %” value (Setaria viridis (SETVI) [9]; dosage 320 g/ha) was 100%. For the same compound, the “Pre-emergence action against VERPE in %” value ([10]; dosage 80 g/ha) was 100%, the “Pre-emergence action against VERPE in %” value ([10]; dosage 320 g/ha) was 100% and the “Pre-emergence action against VIOTR in %” value (Viola tricolor (VIOTR) [11]; 320 g/ha, Viola tricolor) was 100%. The “Pre-emergence action against VIOTR in %” value (Viola tricolor (VIOTR) [11]; dosage 80 g/ha) was 100%, the “Post-emergence action against ABUTH in %” value ([23]; 80 g/ha) was 90% and the “Post-emergence action against ABUTH in %” value ([23]; 320 g/ha) was 90%. The “Post-emergence action against ALOMY in %” value ([12]; 320 g/ha) was 100%, the “Post-emergence action against AMARE in %” value [13, 24] was 90% and the “Post-emergence action against AMARE in %” value [13, 25] was 90%. The “Post-emergence action against AVEFA in %” value (Avena fatua (AVEFA) [14]; 320 g/ha) was 100%, the “Post-emergence action against ECHCG in %” value ([15]; dosage 80 g/ha) was 90% and the “Post-emergence action against ECHCG in %” value ([15]; dosage 320 g/ha) was 90%. For the same compound, the “Post-emergence action against LOLRI in %” value (Lolium rigidum (LOLRI) [16]; dosage 80 g/ha) was 100%, the “Post-emergence action against LOLRI in %” value (Lolium rigidum (LOLRI) [16]; dosage 320 g/ha) was 100% and the “Post-emergence action against MATIN in %” value ([17]; dosage 80 g/ha) was 80%. The “Post-emergence action against MATIN in %” value ([17]; dosage 320 g/ha) was 90%, the “Post-emergence action against PHBPU in %” value ([18]; dosage 80 g/ha) was 90% and the “Post-emergence action against PHBPU in %” value ([18]; dosage 320 g/ha) was 90%. The “Post-emergence action against POLCO in %” value ([19]; dosage 80 g/ha) was 90%, the “Post-emergence action against POLCO in %” value ([19]; dosage 320 g/ha) was 90% and the “Post-emergence action against SETVI in %” value (Setaria viridis (SETVI) [20]; dosage 80 g/ha) was 90%. For the same compound, the “Post-emergence action against SETVI in %” value (Setaria viridis (SETVI) [20]; dosage 320 g/ha) was 100%, the “Post-emergence action against VERPE in %” value ([21]; 320 g/ha, VERPE) was 90% and the “Post-emergence action against VERPE in %” value ([21]; dosage 80 g/ha) was 90%. The “Post-emergence action against VIOTR in %” value (Viola tricolor (VIOTR) [22]; 80 g/ha) was 100% and the “Post-emergence action against VIOTR in %” value (Viola tricolor (VIOTR) [22]; 320 g/ha) was 100%.
